Test results from ChEMBL document CHEMBL1127502, “Mixed 5-HT1A/D-2 activity of a new model of arylpiperazines: 1-aryl-4-[3-(1,2-dihydronaphthalen-4-yl)-n-propyl]piperazines. 1. Synthesis and structure-activity relationships” (J Med Chem, 1994).

Experiments:
[1] = target: T1, 5-hydroxytryptamine receptor 1A (Rattus norvegicus, UniProt P19327); test: In vitro ability to inhibit binding of radioligand [3H]8-OH-DPAT to 5-hydroxytryptamine 1A receptor in rat cerebral cortex; type: tissue-based
T1 sequence (P19327 whole entry): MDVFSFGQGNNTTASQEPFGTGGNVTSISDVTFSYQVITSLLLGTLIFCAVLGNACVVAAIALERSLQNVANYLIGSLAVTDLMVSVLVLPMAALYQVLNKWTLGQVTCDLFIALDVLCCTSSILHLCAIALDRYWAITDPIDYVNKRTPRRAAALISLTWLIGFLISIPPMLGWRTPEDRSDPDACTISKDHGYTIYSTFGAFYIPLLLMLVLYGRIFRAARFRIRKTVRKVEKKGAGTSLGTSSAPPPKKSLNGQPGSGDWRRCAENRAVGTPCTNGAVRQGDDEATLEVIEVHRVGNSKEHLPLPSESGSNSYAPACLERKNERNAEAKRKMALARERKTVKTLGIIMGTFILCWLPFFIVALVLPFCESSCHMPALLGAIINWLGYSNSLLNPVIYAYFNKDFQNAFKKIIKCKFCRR

D(2) dopamine receptor [2] = target: T2, D(2) dopamine receptor (Rattus norvegicus, UniProt P61169); test: Inhibition of binding of radioligand [3H]spiroperidol to dopamine D2 receptor in rat striatal membranes; type: cell membranes, Membrane
T2 sequence (P61169 whole entry): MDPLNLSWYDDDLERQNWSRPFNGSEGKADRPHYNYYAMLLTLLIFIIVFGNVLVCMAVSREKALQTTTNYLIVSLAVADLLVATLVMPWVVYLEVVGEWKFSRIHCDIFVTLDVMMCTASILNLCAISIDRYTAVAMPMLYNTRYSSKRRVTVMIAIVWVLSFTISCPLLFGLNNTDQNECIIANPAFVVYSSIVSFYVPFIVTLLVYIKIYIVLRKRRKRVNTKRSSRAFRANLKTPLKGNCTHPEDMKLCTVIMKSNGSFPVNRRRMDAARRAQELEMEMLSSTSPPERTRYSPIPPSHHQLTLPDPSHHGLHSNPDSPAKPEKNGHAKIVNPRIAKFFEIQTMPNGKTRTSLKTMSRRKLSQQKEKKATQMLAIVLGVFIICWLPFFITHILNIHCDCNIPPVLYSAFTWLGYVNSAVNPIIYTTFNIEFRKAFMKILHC

[3] = target: Serotonin 2 (5-HT2) receptor (Rattus norvegicus, UniProt P30994+P08909+P14842); test: Inhibition of binding of radioligand [3H]ketanserin to 5-hydroxytryptamine 2 receptor in rat cerebral cortex; type: tissue-based
Rattus norvegicus = test: Effective dose required to inhibit behavior effects induced by 8-OH-DPAT in reserpinized rats after subcutaneous administration; type: functional; conditions: sc
D(2) dopamine receptor [4] = target: T2, D(2) dopamine receptor; test: In vitro ability to inhibit binding of radioligand [3H]spiroperidol to dopamine D2 receptor in rat corpora striata
D(2) dopamine receptor [5] = target: T2, D(2) dopamine receptor; test: In vito ability to inhibit binding of radioligand [3H]spiroperidol to dopamine D2 receptor in rat corpora striata
D(2) dopamine receptor [6] = target: T2, D(2) dopamine receptor; test: In vitro ability to inhibit binding of radioligand [3H]spiroperidol to dopamine D2 receptor in rat striatal membranes; type: cell membranes, Membrane

Row | SMILES | IC50 [1] | IC50 (D(2) dopamine receptor [2]) | IC50 [3] | Ki [1] | Ki (D(2) dopamine receptor [4]) | Ki (D(2) dopamine receptor [5]) | Ki (D(2) dopamine receptor [6]) | ED50 (Rattus norvegicus)
1 | COc1cccc2c1C(CCCN1CCN(c3cccc(C(F)(F)F)c3)CC1)=CCC2 | 55.9 nM | 644 nM | 2370 nM | – | – | – | – | 24.2 mg/kg
2 | COc1cccc2c1C(CCCN1CCN(c3cccc(Cl)c3)CC1)=CCC2 | 31.4 nM | 484 nM | 1340 nM | – | – | – | – | –
3 | COc1ccc2c(c1)CCC=C2CCCN1CCN(c2cccc(C(F)(F)F)c2)CC1 | 138 nM | 1290 nM | 1170 nM | – | – | – | – | –
4 | COc1ccc2c(c1)CCC=C2CCCN1CCN(c2cccc(Cl)c2)CC1 | 131 nM | 768 nM | 133 nM | – | – | – | – | –
5 | COc1ccc2c(c1)CCC=C2CCCN1CCNCC1 | > 10000 nM | > 10000 nM | > 10000 nM | – | – | – | – | –
6 | COc1cccc2c1C(CCCN1CCN(c3ccccc3)CC1)=CCC2 | – | 303 nM | 204 nM | – | – | – | – | –
7 | COc1cccc2c1C(CCCN1CCN(c3ccccn3)CC1)=CCC2 | 1.4 nM | 119 nM | 205 nM | 1.26 nM | – | 29.5 nM | – | –
8 | COc1ccccc1N1CCN(CCCCN2C(=O)c3ccccc3C2=O)CC1 [NAN-190] | – | – | – | – | – | – | 9.55 nM | –

Second part, led by results:

Row | IC50 [1] | IC50 (D(2) dopamine receptor [2]) | IC50 [3] | Ki [1] | Ki (D(2) dopamine receptor [4]) | Ki (D(2) dopamine receptor [5]) | Ki (D(2) dopamine receptor [6]) | SMILES | ED50 (Rattus norvegicus)
9 | 161 nM | 201 nM | 932 nM | – | – | – | – | COc1ccc2c(c1)CCC=C2CCCN1CCN(c2cc(OC)ccc2OC)CC1 | –
10 | 2 nM | 90.6 nM | 391 nM | 1.78 nM | 22.4 nM | – | – | COc1ccc2c(c1)CCC=C2CCCN1CCN(c2ccccc2OC)CC1 | 0.76 mg/kg
11 | 63.6 nM | 778 nM | 146 nM | – | – | – | – | COc1ccc2c(c1)CCC=C2CCCN1CCN(c2ccccn2)CC1 | –
12 | 147 nM | 777 nM | 119 nM | – | – | – | – | COc1ccc2c(c1)CCC=C2CCCN1CCN(c2ccccc2)CC1 | –
13 | 8.8 nM | 17.4 nM | 770 nM | – | – | – | – | COc1ccccc1N1CCN(CCCC2=CCCc3cccc(OC)c32)CC1 | –
14 | 15.7 nM | 14.7 nM | 104 nM | – | – | – | – | COc1ccccc1N1CCN(CCCC2=CCCc3ccccc32)CC1 | –
